# Where “and” joins values, the source holds several entries; their conditions need not be identical. Identical values can stand only once.
# Tested on: Rattus norvegicus
# Conditions: oral
# [1] = chronic, duration: 6 months, drinking water, M/F, Sprague-Dawley, Morris water maze (escape time, acquisition, day 6)
# [2] = chronic, duration: 6 months, drinking water, M, Wistar, open field (entries to neighboring grids, day 1) + Y-maze (correct responses, day 9)
# [3] = chronic, duration: 6 months, drinking water, M, Wistar, open field (standing attempts, day 1) + open field (standing attempts, day 9) + open field (time in central grid, day 1) + Y-maze (correct …
# [4] = developmental, drinking water, M/F, Wistar, generation: F1, F1: active avoidance (shuttle box, conditioned avoidance response, day 2)
# [5] = developmental, drinking water, M/F, Wistar, generation: F1, F1: maze test (latency to complete, day 1) + F1: maze test (latency to complete, day 5) + F1: maze test (number entries into blind alleys, …
# [6] = developmental, drinking water, M, Wistar, generation: F1, F1: elevated plus maze (open arm entries) + F1: elevated plus maze (time in open arms) + F1: open field (grooming events) + F1: open field (…
# [7] = developmental, gavage, F, Wistar, generation: F1, F1: novel object test (time exploring both objects, trial 2) + F1: novel object test (time exploring familiar object, trial 2)
# [8] = developmental, gavage, M, Wistar, generation: F1, F1: active avoidance (shuttle box, conditioned avoidance response, 4th block) + F1: passive avoidance (avoidance latency) + F1: rotarod (…
# [9] = developmental, gavage, M, Wistar, generation: F1, F1: auditory startle reflex (peak latency) + F1: auditory startle reflex (pre-pulse inhibition peak latency) + F1: vocalization (number …
structure (smiles),measurement,setting,value
[F-].[Na+] [Sodium fluoride],LOEL,"chronic, duration: 5 months, drinking water, Sprague-Dawley, Y-maze (number of correct responses over 10 trainings after 24 hours) + Y-maze (number of training runs to meet learning standard 90%)",9.8 mg/kg-day
same,LOEL,"chronic, duration: 5 months, drinking water, Wistar, Y-maze (number of training runs to achieve 9 consecutive correct responses)",6.91 mg/kg-day
same,NOEL,"chronic, duration: 6 months, drinking water, M/F, Sprague-Dawley, Morris water maze (escape time, acquisition, day 1)",3.28 mg/kg-day and 3.27 mg/kg-day
same,LOEL,[1],3.27 mg/kg-day
same,NOEL,[1],0.33 mg/kg-day
same,LOEL,"chronic, duration: 6 months, drinking water, M/F, Sprague-Dawley, Morris water maze (escape time, acquisition, day 6) + Morris water maze (escape time, probe test, day 7)",0.33 mg/kg-day
same,LOEL,"chronic, duration: 6 months, drinking water, M/F, Sprague-Dawley, Morris water maze (escape time, acquisition, day 6) + Morris water maze (time in platform area, probe test, day 7) + Morris water maze (time…",0.33 mg/kg-day
same,NOEL,"chronic, duration: 6 months, drinking water, M/F, Sprague-Dawley, Morris water maze (platform crossing, probe test, day 7)",3.27 mg/kg-day
same,LOEL,"chronic, duration: 6 months, drinking water, M/F, Sprague-Dawley, Morris water maze (time in platform area, probe test, day 7)",0.33 mg/kg-day
same,LOEL,"chronic, duration: 6 months, drinking water, M, Wistar, Y-maze (time to meet learning standard 90%)",3.34 mg/kg-day
same,LOEL,[2],10 mg/kg-day
same,NOEL,[2],6.67 mg/kg-day
same,NOEL,"chronic, duration: 6 months, drinking water, M, Wistar, open field (entries to neighboring grids, day 9) + open field (time in central grid, day 9)",10 mg/kg-day
same,LOEL,[3],6.67 mg/kg-day
same,NOEL,[3],3.34 mg/kg-day
same,LOEL,"chronic, duration: 10 months, drinking water, M/F, Sprague-Dawley, Morris water maze (escape time, acquisition, average over days 1-6) + Morris water maze (platform crossing, probe test, day 7)",2.16 mg/L urine
same,LOEL,"chronic, duration: 14 weeks, drinking water, M, Wistar, sexual behavior (ejaculation frequency) + sexual behavior (ejaculation latency) + sexual behavior (intromission latency) + sexual behavior (…",6.67 mg/kg-day
same,NOEL,"chronic, duration: 115 days, drinking water, M, Wistar, open field (squares crossed)",6.67 mg/kg-day
same,LOEL,"chronic, duration: 115 days, drinking water, M, Wistar, plank walking (narrow, distance traveled) + plank walking (narrow, number of turns) + plank walking (wide, distance traveled) + plank …",6.67 mg/kg-day
same,LOEL,"developmental, diet, M/F, Sprague-Dawley, generation: F1, F1: Morris water maze (escape time, acquisition, day 6) + F1: Morris water maze (platform crossing, probe test, day 7) + F1: Morris water …",8.52 mg/L urine
same,NOEL,"developmental, drinking water, F, Wistar, generation: F1, F1: cliff avoidance + F1: ear opening + F1: negative geotaxis + F1: surface righting",0.54 mg/kg-day
same,LOEL,"developmental, drinking water, F, Wistar, generation: F1, F1: elevated plus maze (open arm entries) + F1: elevated plus maze (time in open arms) + F1: open field (grooming events) + F1: open field (…",0.27 mg/kg-day
same,NOEL,"developmental, drinking water, F, Wistar, generation: F1, F1: elevated plus maze (open arm entries) + F1: open field (defecation) + F1: open field (grooming events) + F1: open field (rearing events…",0.54 mg/kg-day
same,LOEL,"developmental, drinking water, F, Wistar, generation: F1, F1: elevated plus maze (time in open arms)",0.27 mg/kg-day
same,LOEL,"developmental, drinking water, F, Wistar, generation: F1, F1: eye opening",0.27 mg/kg-day
same,NOEL,"developmental, drinking water, F, Wistar, generation: F1, F1: open field (defecation) + F1: open field (rearing events, 15 min)",0.54 mg/kg-day
same,LOEL,"developmental, drinking water, M/F, Sprague-Dawley, generation: F1, F1: Morris water maze (distance traveled to reach platform, acquisition, day 4) + F1: Morris water maze (latency to reach platform, …",1.63 mg/kg-day
same,LOEL,"developmental, drinking water, M/F, Sprague-Dawley, generation: F1, F1: Morris water maze (escape time, acquisition, average over days 1-6) + F1: Morris water maze (platform crossing, probe test, day 7) + F1…",3.27 mg/kg-day
same,NOEL,"developmental, drinking water, M/F, Sprague-Dawley, generation: F1, F1: Morris water maze (swim speed to reach platform, acquisition, day 4)",6.53 mg/kg-day
same,LOEL,[4],4.35 mg/kg-day
same,NOEL,[4],2.18 mg/kg-day
same,LOEL,"developmental, drinking water, M/F, Wistar, generation: F1, F1: active avoidance (shuttle box, conditioned avoidance response, day 9) + F1: pain response (hot plate, latency period)",2.18 mg/kg-day
same,LOEL,"developmental, drinking water, M/F, Wistar, generation: F1, F1: elevated plus maze (open arm entries) + F1: elevated plus maze (time in open arms) + F1: mid-air righting (number of animals successful…",9.05 mg/kg-day
same,LOEL,[5],4.87 mg/kg-day
same,NOEL,[5],2.33 mg/kg-day
same,LOEL,"developmental, drinking water, M/F, Wistar, generation: F1, F1: open field (rearing events, day 1) + F1: open field (rearing events, day 3)",2.33 mg/kg-day
same,NOEL,"developmental, drinking water, M/F, Wistar, generation: F1, F1: open field (squares crossed, day 1) + F1: open field (squares crossed, day 3)",4.87 mg/kg-day
same,LOEL,"developmental, drinking water, M/F, Wistar, generation: F1, F1: passive avoidance (step-down test, number of shocks, session 2, day 30) + F1: passive avoidance (step-down test, time to move from …",6.91 mg/kg-day
same,NOEL,"developmental, drinking water, M, Wistar, generation: F1, F1: cliff avoidance + F1: ear opening + F1: negative geotaxis + F1: surface righting",0.54 mg/kg-day
same,LOEL,[6],0.27 mg/kg-day
same,NOEL,[6],0.54 mg/kg-day
same,LOEL,"developmental, drinking water, M, Wistar, generation: F1, F1: eye opening",0.27 mg/kg-day
same,LOEL,"developmental, drinking water, M, Wistar, generation: F1, F1: open field (defecation)",0.27 mg/kg-day
same,NOEL,"developmental, drinking water, M, Wistar, generation: F1, F1: open field (defecation) + F1: open field (rearing events, 15 min)",0.54 mg/kg-day
same,LOEL,"developmental, drinking water, M, Wistar, generation: F1, F1: sexual behavior (% of males ejaculating) + F1: sexual behavior (ejaculation frequency) + F1: sexual behavior (ejaculation latency) + F1…",3.12 mg/kg-day
same,NOEL,"developmental, drinking water, Wistar, generation: F1, F1: Y-maze (error number, 12 weeks) + F1: Y-maze (error number, 6 weeks) + F1: Y-maze (time to meet learning standard 90%, 6 weeks) + F1: Y-…",2.78 mg/L serum
same,LOEL,"developmental, drinking water, Wistar, generation: F1, F1: Y-maze (time to meet learning standard 90%, 12 weeks) + F1: Y-maze (total reaction time, 6 weeks)",2.78 mg/L serum
same,NOEL,"developmental, gavage, F, Wistar, generation: F1, F1: active avoidance (shuttle box, conditioned avoidance response, 1st block) + F1: active avoidance (shuttle box, conditioned avoidance …",2.26 mg/kg-day
same,NOEL,"developmental, gavage, F, Wistar, generation: F1, F1: auditory startle reflex (amplitude) + F1: auditory startle reflex (peak latency) + F1: auditory startle reflex (pre-pulse inhibition …",2.26 mg/kg-day
same,LOEL,[7],2.26 mg/kg-day
same,NOEL,[7],1.13 mg/kg-day
same,LOEL,"developmental, gavage, M/F, Sprague-Dawley, generation: F1, F1: air righting + F1: Morris water maze (escape time, probe test, day 5) + F1: Morris water maze (platform crossing, probe test, day 5) + …",3.44 mg/kg-day
same,NOEL,"developmental, gavage, M/F, Sprague-Dawley, generation: F1, F1: auditory startle (response to metal object sound) + F1: cliff avoidance",3.44 mg/kg-day
same,NOEL,"developmental, gavage, M, Wistar, generation: F1, F1: active avoidance (shuttle box, conditioned avoidance response, 1st block) + F1: novel object test (time exploring both objects, trial 2…",2.26 mg/kg-day
same,LOEL,[8],2.26 mg/kg-day
same,NOEL,[8],1.13 mg/kg-day
same,LOEL,"developmental, gavage, M, Wistar, generation: F1, F1: auditory startle reflex (amplitude)",1.13 mg/kg-day
same,LOEL,[9],2.26 mg/kg-day
same,NOEL,[9],1.13 mg/kg-day
same,LOEL,"developmental, gavage, M, Wistar, generation: F1, F1: sexual behavior (mount/intromission frequency) + F1: sexual behavior (mount/intromission latency)",1.13 mg/kg-day

# Reference: EPA's ToxValDB 9.5
